Reference: patent publication US20120322768A1, “COMPOUNDS, COMPOSITIONS AND METHODS FOR TREATING PROTOZOAN INFECTIONS” (QUEEN MARY & WESTFIELD COLLEGE, priority 2009, published 2012)
Like-named read-outs stand apart in the source and are kept apart here.

B1: T. brucei NTR (TbNTR) (Trypanosoma brucei brucei TREU927) (protein)
chain: DAFIRVVERRHSSKRFDSSRPVDHTLIARLLEATTRAPTAFNLQPWVAIVVHETSQRGALSHAALDQPQPREAPVTVVFAGDMEPEWRAPAALELGLNSGYYHPLYGAAYLRLVYYHLHGGPFGSMAKAKSCISSWYSNATGTPLLSVPTTMQGYAWKQAMIPATTFIYAATAAGLDTAILEGFDEAKVREVVGLPERYTVPVIISVGYKKADEQGKPPVRSPRFSTGSLVRWNRF

Tests used:
THP-1 cells = assay: cells; settings: Homo sapiens, THP-1, 144 h, read-out: IC50 THP1
[1] = system: bloodstream form T. brucei; assay: microbe, parasite or virus in culture; format: cell-based; settings: Trypanosoma brucei
[2] = system: insect form Leishmania major; assay: microbe, parasite or virus in culture; format: cell-based; settings: 144 h, read-out: IC50 L. major
Vero cells = assay: cells; format: cell-based; settings: Chlorocebus sabaeus, read-out: IC50 Vero cells
[3] = system: intracellular form T. cruzi; assay: microbe, parasite or virus in culture; format: cell-based; settings: Trypanosoma cruzi, Vero, 72 h, read-out: IC50 T. cruzi
[4] = Stability in phosphate buffer (HPLC); format: physicochemical; settings: pH 7.4, 100 mM phosphate buffer, three-day incubation at 37° C., 100 μM
Protocol: (§1) Select nitrobenzyl phosphoramide mustards (100 μM) were incubated in pH 7.4 100 mM phosphate buffer or in whole human blood at 37° C. Aliquots were withdrawn at different time intervals and mixed with acetonitrile (1-1 for phosphate buffer and 1-5 for whole blood). The samples were centrifuged and analyzed by HPLC.

[5] = Stability in whole human blood (HPLC); format: in vitro ADME; settings: three-day incubation at 37° C., 100 μM
Protocol: as §1

[6] = substrate: CC1CS(=O)(=O)CCN1/N=C/c1ccc([N+](=O)[O-])o1; assay: TbNTR enzyme activity by NADH oxidation (absorbance at 340 nm); format: biochemical, T. brucei; settings: other: apparent; NADH 100 μM, substrate 2-75 μM
Protocol: Enzyme activity was measured by following the change in absorbance at 340 nm due to NADH oxidation (34, 35). A reaction mixture (1 ml) containing 50 mM Tris-Cl pH 7.0, 100 μM NADH and NBPM (Tables 1 and 2) was incubated at room temperature for 5 min. The background rate of NADH oxidation was determined and the reaction initiated by the addition of 20 μg TbNTR. The enzyme activity was calculated using c of 6,220 M^−1 cm^−1. The absorbance spectrum (320-600 nm) for each NBPM was determined before.

[7] = 72 h, read-out: IC50 T. bruccei
[8] = read-out: IC50 against bloodstream form T. brucei

Molecule	IC50 (THP-1 cells) [µM]	IC50 [1, 7] [µM]	IC50 [2] [µM]	IC50 (Vero cells) [µM]	IC50 [3] [µM]	IC50 [1, 8] [µM]	further results
NP(=O)(OCc1ccc([N+](=O)[O-])cc1)N(CCCl)CCCl (centres unmarked) [LH7]	66 ± 0.8	3.4 ± 0.3	–	–	–	–	–
NP(=O)(OCc1ccc([N+](=O)[O-])cc1F)N(CCCl)CCCl (centres unmarked) [LH32, 2-Fluoro-4-nitrobenzyl phosphoramide mustard]	20.3 ± 1.8	0.268 ± 0.008	4.72 ± 0.23	> 100	9.54 ± 0.27	0.268 ± 0.008	–
NP(=O)(OCc1ccc([N+](=O)[O-])cc1C(F)(F)F)N(CCCl)CCCl (centres unmarked) [LH33, 2-Trifluoromethyl-4-nitrobenzyl phosphoramide mustard]	19 ± 1.9	0.149 ± 0.02	5.88 ± 0.28	> 100	7.97 ± 1.13	0.149 ± 0.02	–
NP(=O)(OCc1ccc([N+](=O)[O-])cc1Cl)N(CCCl)CCCl (centres unmarked) [LH34, 2-Chloro-4-nitrobenzyl phosphoramide mustard]	10 ± 1.2	0.008 ± 0.001	3.1 ± 0.28	> 100	9.14 ± 0.54	< 0.01	Stability in phosphate buffer [4]: stable; change in peak area in whole human blood [5]: less than 30%
NP(=O)(OCc1c(F)cc([N+](=O)[O-])cc1F)N(CCCl)CCCl (centres unmarked) [LH37, 2,6-Difluoro-4-nitrobenzyl phosphoramide mustard]	6.9	0.007	1.29 ± 0.08	> 100	0.99 ± 0.01	< 0.01	Stability in phosphate buffer [4]: completely stable; Stability in human whole blood [5]: completely stable
CC1CS(=O)(=O)CCN1/N=C/c1ccc([N+](=O)[O-])o1 (centres unmarked) [Nifurtimox, reference compound]	64.8 ± 1.5	–	–	–	–	–	–
Nc1nc(N)nc(Nc2ccc([As]3SCC(CO)S3)cc2)n1 (centres unmarked) [melarsoprol, reference compound]	–	–	–	–	–	–	IC50 ([1]; read-out: drug sensitivity (IC50)): ~4 µM
B1	–	–	–	–	–	–	Km [6]: 53.1 ± 15.2 µM; Vmax [6]: 0.423 µmol/min/mg; kcat/Km [6]: 3400 M⁻¹ s⁻¹
